Measured values from article PMC11239005, “Preclinical studies of RA475, a guanidine-substituted spirocyclic candidate RPN13/ADRM1 inhibitor for treatment of ovarian cancer” (PLOS ONE, 2024).

Legend:
RPN13 = molecular target: T1, RPN13 (Homo sapiens, UniProt Q16186); assay: Up284B competition labelling in ES2 and SKOV3 cell lysate; type: binding; settings: titrated RA475, bortezomib 1 μM, Up284B 5 μM
T1 construct: performed the labeling assay after treating ovarian cancer cell lysates (ES2 and SKOV3) in the presence of titrated doses of RA475; endogenous in cells; host or cells: ES2 and SKOV3 ovarian cancer cell lysates
T1 sequence (Q16186 whole entry): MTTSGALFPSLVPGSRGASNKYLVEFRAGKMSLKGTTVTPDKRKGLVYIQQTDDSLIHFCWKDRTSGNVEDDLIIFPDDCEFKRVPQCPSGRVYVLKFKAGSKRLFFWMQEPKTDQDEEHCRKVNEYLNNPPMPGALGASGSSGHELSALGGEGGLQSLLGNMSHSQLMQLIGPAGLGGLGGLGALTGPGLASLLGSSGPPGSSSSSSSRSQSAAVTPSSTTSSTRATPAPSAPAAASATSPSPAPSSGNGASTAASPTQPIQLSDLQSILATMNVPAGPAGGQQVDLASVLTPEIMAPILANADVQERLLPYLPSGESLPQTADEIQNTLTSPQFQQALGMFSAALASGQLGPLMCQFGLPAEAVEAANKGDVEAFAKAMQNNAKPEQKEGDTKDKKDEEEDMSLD
Procedure: Clarified cell lysate in MPER buffer (Pierce) was pretreated with streptavidin-coated magnetic beads for 45 min at 4°C to deplete non-specific biotinylated proteins in the cell lysate. […] Next, the samples were mixed with Laemmli sample buffer (BioRad) and boiled for 5 min. The proteins were separated using a 4–15% Bio-Rad Mini-PROTEAN SDS-PAGE gel (1 h at 100 V), and transferred to PVDF membrane overnight at 4°C (24 V). The membrane was blocked with 5% (w/v) BSA in phosphate buffered saline containing 0.1% (v/v) Tween 20 (PBST) for 1 h at RT, and washed for 20 min (3X with PBST). Then the membrane was probed with HRP-streptavidin (1:10,000 in PBST) for 1 h at RT, washed for 30 min (3X with PBST), and developed using HyGLO chemiluminescent detection reagent (Denville) and visualized using a Biorad Chemidoc imager.
Fig 2 RA475 binds to RPN13 and induces rapid apoptosis. […] C, D) RA475 competition labelling experiment. C) ES2 D) SKOV3 clarified cell lysate (40 μg/sample) in MPER buffer was pretreated with streptavidin-coated magnetic beads for 45 min at 4°C to deplete non-specific biotinylated proteins in the cell lysate. […] Next, the samples were mixed with Laemmli sample buffer (BioRad) and boiled for 5 min. The proteins were separated using a 4–15% Bio-Rad Mini-PROTEAN SDS-PAGE gel (1 h at 100 V), and transferred to PVDF membrane overnight at 4°C (24 V). […]

[1] = test system: high molecular weight polyubiquitinated proteins in OVCAR3 cells; assay: Anti-ubiquitin immunoblot, OVCAR3; type: cell-based, human; settings: Up284 0.5 μM, bortezomib 0.25 μM, ixazomib 0.25 μM, RA475 0.5 or 1 μM
Excerpt: Cell lysate prepared in MPER (Pierce) from each sample was normalized by total protein concentration using the bicinchoninic acid assay and bovine serum albumin standards. Normalized samples were subjected to SDS-PAGE, transferred to PVDF membranes and analyzed by Western blot using antibodies specific to ubiquitin (P4D1, sc-8017, Santa Cruz), PARP (#9542, […]), actin (#66009, Protein Tech Group), Tubulin(#66031, Protein Tech Group), ADRM1/RPN13 (D9Z1U, #12019, Cell Signaling), USP14 (Cell Signal, # 8159), Annexin V (#559763, BD Pharmingen), and for secondary antibodies we utilized either horseradish peroxidase (HRP)-linked anti-mouse IgG or anti-rabbit IgG (GE Healthcare UK Ltd), HRP-linked streptavidin (N100, Thermo Fisher) at the recommended dilution (1:5000).
Accumulation of high molecular weight polyubiquitinated proteins (polyUb) is a classical phenomenon of proteasome function inhibition due to the stabilization of its substrate.
Fig 3 Impact of RA475 on proteasome function. […] Actin was used as loading control. […] C) 4T1 and HCC1806 cells stably expressing 4UbFL were treated with compounds at indicated doses for 4 h and imaged by IVIS200 after the addition of luciferin substrate (50 μL, 7mg/mL in PBS). D) Sub-confluent cultures of ES2 cells stably expressing 4UbFL were seeded at 10,000 cells/well in 96-well microtiter plates. At 18 h post transfection, cells were treated with compounds or vehicle (DMSO) at the doses indicated. After a 4 h incubation, the cells were lysed and the luciferase activity in each cell lysate was determined with a luciferase assay kit (Promega) according to the manufacturer’s instructions. Bioluminescence was measured by using a luminometer (Glomax Multidetection system, Promega) E) A patch was shaved of hair on one leg of CD-1 mice, and 10 μg 4UbFL plasmid in 20 μL of PBS was injected into the quadriceps femoralis muscle followed immediately by injection of the 2 Needle Array to 5 mm depth encompassing the injection site and square wave electroporation (ElectroSquarePorator 833, BTX-2 Needle array 5mm gap, Harvard apparatus) delivered as eight pulses at 106V for 20 ms with 200 ms intervals. One day post electroporation, mice were anesthetized with isoflurane, injected IP with luciferin (0.3 mg in 100 μL water) and optical imaging was performed to determine basal level luciferase expression. Images were acquired for 10 min with a Xenogen IVIS 200 (Caliper, Hopkinton, MA). Equally sized areas were analyzed using Living Image 2.20 software. Mice were imaged weekly during treatment. […]

[2] = cited from earlier work

## CC(C)C[C@H](NC(=O)[C@H](Cc1ccccc1)NC(=O)c1cnccn1)B(O)O [bortezomib]
RPN13
  competition with Up284B for binding to RPN13: no impact
[1]
  forms of polyUb induced: only induced the smaller poly Ub forms, typically <250kDa
[2]
  concentration in human cerebrospinal fluid and murine brain tissue, % of serum concentrations: 5–7%
